Source: ChEMBL document CHEMBL6083204, “Synthesis of a celastrol derivative as a cancer stem cell inhibitor through regulation of the STAT3 pathway for treatment of ovarian cancer” (RSC Med Chem, 2024)
Calls of active or inactive are those of the source. The calls are words filed in the database; no cut-off is given here.

Key:
[1] = Selectivity index, ratio of IC50 for cytotoxicity against human IOSE80 cells to IC50 for cytotoxicity against human SK-OV-3 cells
SK-OV-3 [2] = assay: Inhibition of human SK-OV-3 cells spheroid formation assessed as reduction in spheroid size at 0.1 to 0.4 uM incubated for 10 days by inverted microscopic analysis; type: functional, cell-based; settings: dose 0.1-0.4 µM, time 10.0 day
SK-OV-3 [3] = assay: Antiproliferative activity against human SK-OV-3 cells assessed as decrease in CD44 positive CD24 negative cells expression at 0.2 uM incubated for 24 hrs by FITC staining based flow cytometry (reference value: 85.6 %); type: functional; parameters: scale not given: the % may be the effect or the level left
A2780 [4] = assay: Antiproliferative activity against human A2780 cells assessed as decrease in ALDH positive cells at 0.2 uM incubated for 24 hrs by ALDEFLUOR staining based flow cytometry (reference value: 32.5 %); type: functional; parameters: scale not given: the % may be the effect or the level left
A2780 [5] = assay: Antiproliferative activity against human A2780 cells assessed as decrease in ALDH positive cells at 0.4 uM incubated for 24 hrs by ALDEFLUOR staining based flow cytometry (reference value: 32.5 %); type: functional; parameters: scale not given: the % may be the effect or the level left
[6] = target: Signal transducer and activator of transcription 3 (Homo sapiens) (UniProt P40763); assay: Inhibition of STAT3 in human SK-OV-3 cells assessed as downregulation of STAT3 phosphorylation at Tyr705 residue incubated for 24 hrs by Western blotting analysis; type: cell-based
Chain of Signal transducer and activator of transcription 3 (Homo sapiens) (P40763 whole entry): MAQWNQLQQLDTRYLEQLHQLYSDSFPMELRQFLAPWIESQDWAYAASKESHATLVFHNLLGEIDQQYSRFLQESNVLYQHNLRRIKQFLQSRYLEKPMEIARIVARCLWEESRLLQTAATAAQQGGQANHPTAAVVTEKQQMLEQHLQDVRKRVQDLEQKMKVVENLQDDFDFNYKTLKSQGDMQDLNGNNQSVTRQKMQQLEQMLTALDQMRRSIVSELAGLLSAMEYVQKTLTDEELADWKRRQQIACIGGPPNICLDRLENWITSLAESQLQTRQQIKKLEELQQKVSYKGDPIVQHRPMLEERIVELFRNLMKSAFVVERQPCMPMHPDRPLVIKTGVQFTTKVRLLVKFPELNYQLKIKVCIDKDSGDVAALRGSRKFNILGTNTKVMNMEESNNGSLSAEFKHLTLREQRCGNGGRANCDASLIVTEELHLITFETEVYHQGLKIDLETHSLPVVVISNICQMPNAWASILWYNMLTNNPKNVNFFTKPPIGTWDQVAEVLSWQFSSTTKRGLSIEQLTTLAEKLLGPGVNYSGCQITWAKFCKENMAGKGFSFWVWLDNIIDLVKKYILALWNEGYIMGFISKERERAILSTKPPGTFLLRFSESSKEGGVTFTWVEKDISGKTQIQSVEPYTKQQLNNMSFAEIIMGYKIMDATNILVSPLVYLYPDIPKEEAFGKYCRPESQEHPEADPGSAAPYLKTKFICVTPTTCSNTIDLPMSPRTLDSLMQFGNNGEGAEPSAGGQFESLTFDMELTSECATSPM

[7] = target: Signal transducer and activator of transcription 3 (Homo sapiens) (UniProt P40763); assay: Inhibition of STAT3 in human A2780 cells assessed as downregulation of cytoplasmic STAT3 phosphorylation at Tyr705 residue at 0.2 uM incubated for 24 hrs by Hoechst33342 staining based immunofluorescence assay; type: cell-based
[8] = target: Signal transducer and activator of transcription 3 (Homo sapiens) (UniProt P40763); assay: Inhibition of STAT3 in human A2780 cells assessed as downregulation of cytoplasmic STAT3 phosphorylation at Ser727 residue at 0.2 uM incubated for 24 hrs by Hoechst33342 staining based immunofluorescence assay; type: cell-based
SK-OV-3 [9] = assay: Induction of cell cycle arrest in human SK-OV-3 cells assessed as accumulation of cells at S phase at 0.8 uM incubated for 24 hrs by BrdU staining based flow cytometry (reference value: 33.6 %); type: functional
A2780 [10] = assay: Induction of cell cycle arrest in human A2780 cells assessed as accumulation of cells at G2/M phase at 0.2 uM incubated for 24 hrs by BrdU staining based flow cytometry (reference value: 6.2 %); type: functional
SK-OV-3 [11] = assay: Induction of cell cycle arrest in human SK-OV-3 cells assessed as reduction of CDK4 expression at 0.8 uM incubated for 24 hrs by flow cytometry (reference value: 66.8 %); type: functional; parameters: scale not given: the % may be the effect or the level left
SK-OV-3 [12] = assay: Induction of cell cycle arrest in human SK-OV-3 cells assessed as reduction of Cyclin D1 expression at 0.4 uM incubated for 24 hrs by flow cytometry (reference value: 93.8 %); type: functional; parameters: scale not given: the % may be the effect or the level left
A2780 [13] = assay: Induction of cell cycle arrest in human A2780 cells assessed as reduction of CDK2 expression at 0.2 uM incubated for 24 hrs by flow cytometry (reference value: 92.5 %); type: functional; parameters: scale not given: the % may be the effect or the level left
A2780 [14] = assay: Induction of cell cycle arrest in human A2780 cells assessed as reduction of CDK2 expression at 0.4 uM incubated for 24 hrs by flow cytometry (reference value: 92.5 %); type: functional; parameters: scale not given: the % may be the effect or the level left
A2780 [15] = assay: Induction of cell cycle arrest in human A2780 cells assessed as reduction of CDK4 expression at 0.2 uM incubated for 24 hrs by flow cytometry (reference value: 93.6 %); type: functional; parameters: scale not given: the % may be the effect or the level left
A2780 [16] = assay: Induction of cell cycle arrest in human A2780 cells assessed as reduction of CDK4 expression at 0.8 uM incubated for 24 hrs by flow cytometry (reference value: 93.6 %); type: functional; parameters: scale not given: the % may be the effect or the level left
A2780 [17] = assay: Induction of cell cycle arrest in human A2780 cells assessed as reduction of Cyclin D1 expression at 0.2 uM incubated for 24 hrs by flow cytometry (reference value: 92.5 %); type: functional; parameters: scale not given: the % may be the effect or the level left
A2780 [18] = assay: Induction of cell cycle arrest in human A2780 cells assessed as reduction of Cyclin D1 expression at 0.4 uM incubated for 24 hrs by flow cytometry (reference value: 92.5 %); type: functional; parameters: scale not given: the % may be the effect or the level left
SK-OV-3 [19] = assay: Induction of apoptosis in human SK-OV-3 cells assessed as early apoptotic cells at 0.4 uM incubated for 24 hrs by Annexin V-FITC/7-AAD staining based flow cytometry (reference value: 1.6 %); type: functional
SK-OV-3 [20] = assay: Induction of apoptosis in human SK-OV-3 cells assessed as necrotic cells at 0.8 uM incubated for 24 hrs by Annexin V-FITC/7-AAD staining based flow cytometry (reference value: 0.6 %); type: functional
A2780 [21] = assay: Induction of apoptosis in human A2780 cells assessed as viable cells at 0.2 uM incubated for 24 hrs by Annexin V-FITC/7-AAD staining based flow cytometry (reference value: 95 %); type: functional; settings: read-out: Activity
A2780 [22] = assay: Induction of apoptosis in human A2780 cells assessed as viable cells at 0.4 uM incubated for 24 hrs by Annexin V-FITC/7-AAD staining based flow cytometry (reference value: 95 %); type: functional; settings: read-out: Activity
A2780 [23] = assay: Induction of apoptosis in human A2780 cells assessed as early apoptotic cells at 0.8 uM incubated for 24 hrs by Annexin V-FITC/7-AAD staining based flow cytometry (reference value: 1.9 %); type: functional
A2780 [24] = assay: Induction of apoptosis in human A2780 cells assessed as late apoptotic cells at 0.2 uM incubated for 24 hrs by Annexin V-FITC/7-AAD staining based flow cytometry (reference value: 2.1 %); type: functional
A2780 [25] = assay: Induction of apoptosis in human A2780 cells assessed as necrotic cells at 0.8 uM incubated for 24 hrs by Annexin V-FITC/7-AAD staining based flow cytometry (reference value: 1 %); type: functional
SK-OV-3 [26] = assay: Induction of apoptosis in human SK-OV-3 cells assessed as increase in caspase-3 activity at 0.2 uM incubated for 24 hrs by flow cytometry (reference value: 4.6 %); type: functional
SK-OV-3 [27] = assay: Induction of apoptosis in human SK-OV-3 cells assessed as increase in caspase-3 activity at 0.4 uM incubated for 24 hrs by flow cytometry (reference value: 4.6 %); type: functional
SK-OV-3 [28] = assay: Induction of apoptosis in human SK-OV-3 cells assessed as increase in caspase-8 activity at 0.4 uM incubated for 24 hrs by flow cytometry (reference value: 2.5 %); type: functional
SK-OV-3 [29] = assay: Induction of apoptosis in human SK-OV-3 cells assessed as increase in caspase-8 activity at 0.8 uM incubated for 24 hrs by flow cytometry (reference value: 2.5 %); type: functional
A2780 [30] = assay: Induction of apoptosis in human A2780 cells assessed as increase in caspase-8 activity at 0.4 uM incubated for 24 hrs by flow cytometry (reference value: 1.2 %); type: functional
SK-OV-3 [31] = assay: Antitumor activity against human SK-OV-3 cells xenografted in BALB/c mouse assessed as appearance of shrunken nucleus in tumor tissue at 2 to 5 mg/kg,ip administrated for 21 consecutive days by hematoxylin and eosin staining based assay; type: functional, organism-based; settings: dose 2-5 mg/kg
[32] = Toxicity in BALB/c mouse xenografted with human SK-OV-3 cells assessed as pathological change in kidney at 2 to 5 mg/kg,ip administrated for 21 consecutive days by hematoxylin and eosin staining based assay; type: organism-based; settings: in vivo, dose 2-5 mg/kg

CC1=C(O)C(=O)C=C2C1=CC=C1[C@@]2(C)CC[C@@]2(C)[C@@H]3C[C@](C)(C(=O)N4CCNCC4)CC[C@]3(C)CC[C@]12C
Ratio IC50 [1]: 4.81 | inhibition (SK-OV-3 [2]): Active | Activity (SK-OV-3 [3]): 64.53% | Activity (A2780 [4]): 3.83% | Activity (A2780 [5]): 0.37% | inhibition [6]: Dose-dependent-effect | inhibition [7]: Active; Showed Mild Inhibition Activity | inhibition [8]: Active; Showed Mild Inhibition Activity | Activity (SK-OV-3 [9]): 37.2% | Activity (A2780 [10]): 4.8% | Activity (SK-OV-3 [11]): 29.8% | Activity (SK-OV-3 [12]): 68.2% | Activity (A2780 [13]): 89.6% | Activity (A2780 [14]): 69.9% | Activity (A2780 [15]): 74.6% | Activity (A2780 [16]): 18.7% | Activity (A2780 [17]): 85.2% | Activity (A2780 [18]): 67.7% | Activity (SK-OV-3 [19]): 23.3% | Activity (SK-OV-3 [20]): 1.4% | viability at 0.2 µM (A2780 [21]): 89.3% | viability at 0.4 µM (A2780 [22]): 75.3% | Activity (A2780 [23]): 1.7% | Activity (A2780 [24]): 5.3% | Activity (A2780 [25]): 7.1% | Activity (SK-OV-3 [26]): 6.8% | Activity (SK-OV-3 [27]): 12.6% | Activity (SK-OV-3 [28]): 36.7% | Activity (SK-OV-3 [29]): 74.7% | Activity (A2780 [30]): 9.8% | Activity (SK-OV-3 [31]): Active | Activity [32]: Non-toxic
